From paper PMC3968014, “Design and Synthesis of a Library of Lead-Like 2,4-Bisheterocyclic Substituted Thiophenes as Selective Dyrk/Clk Inhibitors” (PLoS ONE, 2014) come the findings set out here.

One assay deals with U2OS osteosarcoma cells. Put plainly: ROS Assay (dihydroethidium). The conditions noted are these: 48 hours. In kind it is cell-based. The procedure:
U2OS osteosarcoma cells were plated on six well cell culture plates (5*10^5 cells/well). […]. Cells were washed with phosphate–buffered saline (PBS) and incubated for 30 min at 37°C in the dark with 10 µM dihydroethidium (DHE) in PBS and washed with PBS. The cells were then trypsinized, collected by centrifugation, and lysed with lysis buffer (100 mM Tris/HCl, pH 7.3, 2 mM EGTA, 2% Triton X100). The amount of ethidium produced by reactive oxygen species (ROS) was quantified by measuring the fluorescence (Ex485, Em620) in a POLARstar plate reader (BMG Labtech, Offenburg, Germany). Values obtained for different compound concentrations were compared using the two-sided Student's t-test; levels of significance thus obtained are indicated by asterisks.

In the next assay the target is T1, SGK (SGK1) (Homo sapiens, UniProt O00141).
T1 construct: purchased Life Technologies (Invitrogen SelectScreen); Dyrk1A, Dyrk2 and CK2α in-house or gifts
Kind of assay: Selectivity panel SGK. In kind it is biochemical. The settings on record: 5 µM inhibitor.

Another assay deals with T2, RAF1 (cRAF) Y340D Y341D (Homo sapiens, UniProt P04049, Y340D/Y341D).
T2 construct: purchased Life Technologies (Invitrogen SelectScreen); Dyrk1A, Dyrk2 and CK2α in-house or gifts
Kind of assay: Selectivity panel RAF1. In kind it is biochemical. The settings on record: 5 µM inhibitor.

Another assay concerns the target T3, TBK1 (Homo sapiens, UniProt Q9UHD2).
T3 construct: purchased Life Technologies (Invitrogen SelectScreen); Dyrk1A, Dyrk2 and CK2α in-house or gifts
Put plainly: Selectivity panel TBK1. The settings on record: 5 µM inhibitor. In kind it is biochemical.

The next assay addresses T4, PRKACA (PKA) (Homo sapiens, UniProt P17612).
T4 construct: purchased Life Technologies (Invitrogen SelectScreen); Dyrk1A, Dyrk2 and CK2α in-house or gifts
Put plainly: Selectivity panel PRKACA. The conditions noted are these: 5 µM inhibitor. In kind it is biochemical.

A further assay deals with T5, MAPKAPK2 (Homo sapiens, UniProt P49137).
T5 construct: purchased Life Technologies (Invitrogen SelectScreen); Dyrk1A, Dyrk2 and CK2α in-house or gifts
Kind of assay: Selectivity panel MAPKAPK2. In kind it is biochemical. The conditions noted are these: 5 µM inhibitor.

In another assay the target is T6, DYRK4 (Homo sapiens, UniProt Q9NR20).
T6 construct: purchased Life Technologies (Invitrogen SelectScreen); Dyrk1A, Dyrk2 and CK2α in-house or gifts
T6 sequence (Q9NR20 whole entry): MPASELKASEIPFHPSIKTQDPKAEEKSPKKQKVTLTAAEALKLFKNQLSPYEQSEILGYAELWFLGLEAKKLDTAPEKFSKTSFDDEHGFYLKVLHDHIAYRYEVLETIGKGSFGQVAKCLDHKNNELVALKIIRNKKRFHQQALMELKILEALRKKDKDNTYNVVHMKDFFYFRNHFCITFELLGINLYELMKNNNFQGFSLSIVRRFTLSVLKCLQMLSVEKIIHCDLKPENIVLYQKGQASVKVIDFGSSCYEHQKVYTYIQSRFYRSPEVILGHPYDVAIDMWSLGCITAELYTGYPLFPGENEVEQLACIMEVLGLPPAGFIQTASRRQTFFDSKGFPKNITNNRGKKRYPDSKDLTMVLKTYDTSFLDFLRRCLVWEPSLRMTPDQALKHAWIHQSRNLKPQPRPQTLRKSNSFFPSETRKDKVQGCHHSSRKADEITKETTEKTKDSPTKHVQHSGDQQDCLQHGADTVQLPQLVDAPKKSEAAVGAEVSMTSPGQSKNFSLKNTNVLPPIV
Put plainly: Selectivity panel DYRK4. The settings on record: 5 µM inhibitor. In kind it is biochemical.

A further assay addresses T7, TGFBR1 (ALK5) (Homo sapiens, UniProt P36897).
T7 construct: purchased Life Technologies (Invitrogen SelectScreen); Dyrk1A, Dyrk2 and CK2α in-house or gifts
Put plainly: Selectivity panel TGFBR1. In kind it is biochemical. The settings on record: 5 µM inhibitor.

In the next assay the target is T8, CSNK1G1 (CK1 gamma 1) (Homo sapiens, UniProt Q9HCP0).
T8 construct: purchased Life Technologies (Invitrogen SelectScreen); Dyrk1A, Dyrk2 and CK2α in-house or gifts
Put plainly: Selectivity panel CSNK1G1. The settings on record: 5 µM inhibitor. In kind it is biochemical.

Assay [1] concerns the target T9, (Homo sapiens, UniProt Q9UEW8).
T9 construct: purchased Life Technologies (Invitrogen SelectScreen); Dyrk1A, Dyrk2 and CK2α in-house or gifts
Kind of assay: Selectivity panel PASK (STLK3). In kind it is biochemical. The settings on record: 5 µM inhibitor; listed under STE.

In a further assay the target is T10, MAPK9 (JNK2) (Homo sapiens, UniProt P45984).
T10 construct: purchased Life Technologies (Invitrogen SelectScreen); Dyrk1A, Dyrk2 and CK2α in-house or gifts
Kind of assay: Selectivity panel MAPK9. In kind it is biochemical. The conditions noted are these: 5 µM inhibitor.

The target in the next assay is T11, EEF2K (Homo sapiens, UniProt O00418).
T11 construct: purchased Life Technologies (Invitrogen SelectScreen); Dyrk1A, Dyrk2 and CK2α in-house or gifts
Kind of assay: Selectivity panel EEF2K. In kind it is biochemical. The conditions noted are these: 5 µM inhibitor.

A further assay deals with T12, KDR (VEGFR2) (Homo sapiens, UniProt P35968).
T12 construct: purchased Life Technologies (Invitrogen SelectScreen); Dyrk1A, Dyrk2 and CK2α in-house or gifts
Kind of assay: Selectivity panel KDR. In kind it is biochemical. The settings on record: 5 µM inhibitor.

A further assay deals with T13, LIMK1 (Homo sapiens, UniProt P53667).
T13 construct: purchased Life Technologies (Invitrogen SelectScreen); Dyrk1A, Dyrk2 and CK2α in-house or gifts
T13 sequence (P53667 whole entry): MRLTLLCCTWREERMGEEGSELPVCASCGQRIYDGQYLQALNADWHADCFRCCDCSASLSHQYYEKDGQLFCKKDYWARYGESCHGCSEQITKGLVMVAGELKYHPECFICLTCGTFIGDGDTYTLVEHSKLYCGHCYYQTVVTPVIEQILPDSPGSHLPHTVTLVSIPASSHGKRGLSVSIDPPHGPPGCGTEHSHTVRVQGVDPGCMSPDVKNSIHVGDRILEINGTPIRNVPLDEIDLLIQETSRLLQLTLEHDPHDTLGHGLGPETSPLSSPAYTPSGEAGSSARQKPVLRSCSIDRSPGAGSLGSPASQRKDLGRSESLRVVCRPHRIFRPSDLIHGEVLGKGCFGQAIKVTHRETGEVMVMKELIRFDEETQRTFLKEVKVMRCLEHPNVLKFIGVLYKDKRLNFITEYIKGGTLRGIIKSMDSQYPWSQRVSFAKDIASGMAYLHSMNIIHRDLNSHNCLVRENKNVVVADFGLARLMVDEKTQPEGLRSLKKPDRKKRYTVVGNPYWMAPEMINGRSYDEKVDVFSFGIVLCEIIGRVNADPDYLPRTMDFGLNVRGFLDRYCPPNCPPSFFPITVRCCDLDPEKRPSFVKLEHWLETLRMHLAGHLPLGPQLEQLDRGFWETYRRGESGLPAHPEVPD
Put plainly: Selectivity panel LIMK1. In kind it is biochemical. The conditions noted are these: 5 µM inhibitor.

The next assay addresses T14, AMPK A1/B1/G1 (Homo sapiens, UniProt Q13131).
T14 construct: purchased Life Technologies (Invitrogen SelectScreen); Dyrk1A, Dyrk2 and CK2α in-house or gifts
Put plainly: Selectivity panel AMPK. In kind it is biochemical. The settings on record: 5 µM inhibitor.

Another assay concerns the target T15, MINK1 (Homo sapiens, UniProt Q8N4C8).
T15 construct: purchased Life Technologies (Invitrogen SelectScreen); Dyrk1A, Dyrk2 and CK2α in-house or gifts
Put plainly: Selectivity panel MINK1. In kind it is biochemical. The settings on record: 5 µM inhibitor.

The next assay concerns the target T16, MET (cMet) (Homo sapiens, UniProt P08581).
T16 construct: purchased Life Technologies (Invitrogen SelectScreen); Dyrk1A, Dyrk2 and CK2α in-house or gifts
Kind of assay: Selectivity panel MET. The conditions noted are these: 5 µM inhibitor. In kind it is biochemical.

The target in a further assay is T17, CHEK2 (CHK2) (Homo sapiens, UniProt O96017).
T17 construct: purchased Life Technologies (Invitrogen SelectScreen); Dyrk1A, Dyrk2 and CK2α in-house or gifts
Kind of assay: Selectivity panel CHEK2. In kind it is biochemical. The settings on record: 5 µM inhibitor.

Another assay has as its target T18, TEK (Tie2) (Homo sapiens, UniProt Q02763).
T18 construct: purchased Life Technologies (Invitrogen SelectScreen); Dyrk1A, Dyrk2 and CK2α in-house or gifts
Put plainly: Selectivity panel TEK. The conditions noted are these: 5 µM inhibitor. In kind it is biochemical.

Another assay concerns the target T19, IKBKB (IKK beta) (Homo sapiens, UniProt O14920).
T19 construct: purchased Life Technologies (Invitrogen SelectScreen); Dyrk1A, Dyrk2 and CK2α in-house or gifts
Kind of assay: Selectivity panel IKBKB. The conditions noted are these: 5 µM inhibitor. In kind it is biochemical.

The next assay concerns the target T20, TNK2 (ACK) (Homo sapiens, UniProt Q07912).
T20 construct: purchased Life Technologies (Invitrogen SelectScreen); Dyrk1A, Dyrk2 and CK2α in-house or gifts
Put plainly: Selectivity panel TNK2. In kind it is biochemical. The conditions noted are these: 5 µM inhibitor.

For another assay, the target named is T21, MAP3K14 (NIK) (Homo sapiens, UniProt Q99558).
T21 construct: purchased Life Technologies (Invitrogen SelectScreen); Dyrk1A, Dyrk2 and CK2α in-house or gifts
Put plainly: Selectivity panel MAP3K14. In kind it is biochemical. The conditions noted are these: 5 µM inhibitor.

The next assay addresses T22, NEK1 (Homo sapiens, UniProt Q96PY6).
T22 construct: purchased Life Technologies (Invitrogen SelectScreen); Dyrk1A, Dyrk2 and CK2α in-house or gifts
Kind of assay: Selectivity panel NEK1. In kind it is biochemical. The conditions noted are these: 5 µM inhibitor.

A further assay addresses T23, SRPK1 (Homo sapiens, UniProt Q96SB4).
T23 construct: purchased Life Technologies (Invitrogen SelectScreen); Dyrk1A, Dyrk2 and CK2α in-house or gifts
Put plainly: Selectivity panel SRPK1. The conditions noted are these: 5 µM inhibitor. In kind it is biochemical.

T14 sequence (Q13131 whole entry): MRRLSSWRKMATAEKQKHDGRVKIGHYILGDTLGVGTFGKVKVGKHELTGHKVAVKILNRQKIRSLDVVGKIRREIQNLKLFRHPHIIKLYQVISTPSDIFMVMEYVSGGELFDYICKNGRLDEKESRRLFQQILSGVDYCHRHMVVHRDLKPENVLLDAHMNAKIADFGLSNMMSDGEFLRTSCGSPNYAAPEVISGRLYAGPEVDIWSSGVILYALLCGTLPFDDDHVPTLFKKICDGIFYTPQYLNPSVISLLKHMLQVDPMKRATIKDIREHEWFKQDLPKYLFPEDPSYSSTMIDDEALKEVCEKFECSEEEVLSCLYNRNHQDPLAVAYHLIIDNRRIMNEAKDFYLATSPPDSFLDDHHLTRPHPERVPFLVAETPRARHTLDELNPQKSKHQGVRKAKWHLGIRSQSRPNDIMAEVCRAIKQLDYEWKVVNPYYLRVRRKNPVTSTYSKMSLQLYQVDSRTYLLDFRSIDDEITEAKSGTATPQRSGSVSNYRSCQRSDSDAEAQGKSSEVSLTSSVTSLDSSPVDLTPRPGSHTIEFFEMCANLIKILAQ
T14 sequence (Q9Y478 whole entry partner): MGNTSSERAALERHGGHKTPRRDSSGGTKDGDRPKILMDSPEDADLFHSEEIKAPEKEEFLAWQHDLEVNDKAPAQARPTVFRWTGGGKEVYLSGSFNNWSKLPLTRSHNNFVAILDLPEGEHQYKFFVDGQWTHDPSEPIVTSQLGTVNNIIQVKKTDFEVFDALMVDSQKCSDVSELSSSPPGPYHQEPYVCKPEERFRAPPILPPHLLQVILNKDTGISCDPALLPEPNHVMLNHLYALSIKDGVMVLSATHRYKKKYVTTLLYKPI
T14 sequence (P54619 whole entry partner): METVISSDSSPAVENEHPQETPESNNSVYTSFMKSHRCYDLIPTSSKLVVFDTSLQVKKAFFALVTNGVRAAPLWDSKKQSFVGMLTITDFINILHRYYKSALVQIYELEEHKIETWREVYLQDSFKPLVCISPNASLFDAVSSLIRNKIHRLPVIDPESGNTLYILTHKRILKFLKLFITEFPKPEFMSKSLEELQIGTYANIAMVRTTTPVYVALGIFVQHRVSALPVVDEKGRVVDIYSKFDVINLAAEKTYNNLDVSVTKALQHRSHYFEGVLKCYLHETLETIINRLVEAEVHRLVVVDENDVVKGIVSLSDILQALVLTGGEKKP
T19 sequence (O14920 whole entry): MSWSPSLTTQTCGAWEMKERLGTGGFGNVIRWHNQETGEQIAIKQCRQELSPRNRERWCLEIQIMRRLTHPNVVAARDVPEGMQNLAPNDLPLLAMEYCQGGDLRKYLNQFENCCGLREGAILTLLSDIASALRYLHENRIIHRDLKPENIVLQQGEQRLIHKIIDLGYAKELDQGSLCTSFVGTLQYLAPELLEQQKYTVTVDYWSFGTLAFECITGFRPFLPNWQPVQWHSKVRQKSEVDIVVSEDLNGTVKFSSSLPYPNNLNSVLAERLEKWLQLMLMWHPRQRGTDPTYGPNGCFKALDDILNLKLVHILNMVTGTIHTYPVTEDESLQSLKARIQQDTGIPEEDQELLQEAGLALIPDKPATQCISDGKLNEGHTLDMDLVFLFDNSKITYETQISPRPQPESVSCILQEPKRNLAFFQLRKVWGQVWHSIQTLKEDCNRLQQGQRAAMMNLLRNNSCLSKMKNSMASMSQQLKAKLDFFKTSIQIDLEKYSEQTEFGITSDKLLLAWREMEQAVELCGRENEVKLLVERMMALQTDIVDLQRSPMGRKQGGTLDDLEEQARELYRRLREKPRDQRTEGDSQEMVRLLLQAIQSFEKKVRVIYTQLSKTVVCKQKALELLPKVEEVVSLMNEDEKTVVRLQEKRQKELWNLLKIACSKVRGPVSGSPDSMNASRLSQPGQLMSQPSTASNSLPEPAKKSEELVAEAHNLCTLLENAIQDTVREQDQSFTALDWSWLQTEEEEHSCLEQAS
T18 sequence (Q02763 23-1124): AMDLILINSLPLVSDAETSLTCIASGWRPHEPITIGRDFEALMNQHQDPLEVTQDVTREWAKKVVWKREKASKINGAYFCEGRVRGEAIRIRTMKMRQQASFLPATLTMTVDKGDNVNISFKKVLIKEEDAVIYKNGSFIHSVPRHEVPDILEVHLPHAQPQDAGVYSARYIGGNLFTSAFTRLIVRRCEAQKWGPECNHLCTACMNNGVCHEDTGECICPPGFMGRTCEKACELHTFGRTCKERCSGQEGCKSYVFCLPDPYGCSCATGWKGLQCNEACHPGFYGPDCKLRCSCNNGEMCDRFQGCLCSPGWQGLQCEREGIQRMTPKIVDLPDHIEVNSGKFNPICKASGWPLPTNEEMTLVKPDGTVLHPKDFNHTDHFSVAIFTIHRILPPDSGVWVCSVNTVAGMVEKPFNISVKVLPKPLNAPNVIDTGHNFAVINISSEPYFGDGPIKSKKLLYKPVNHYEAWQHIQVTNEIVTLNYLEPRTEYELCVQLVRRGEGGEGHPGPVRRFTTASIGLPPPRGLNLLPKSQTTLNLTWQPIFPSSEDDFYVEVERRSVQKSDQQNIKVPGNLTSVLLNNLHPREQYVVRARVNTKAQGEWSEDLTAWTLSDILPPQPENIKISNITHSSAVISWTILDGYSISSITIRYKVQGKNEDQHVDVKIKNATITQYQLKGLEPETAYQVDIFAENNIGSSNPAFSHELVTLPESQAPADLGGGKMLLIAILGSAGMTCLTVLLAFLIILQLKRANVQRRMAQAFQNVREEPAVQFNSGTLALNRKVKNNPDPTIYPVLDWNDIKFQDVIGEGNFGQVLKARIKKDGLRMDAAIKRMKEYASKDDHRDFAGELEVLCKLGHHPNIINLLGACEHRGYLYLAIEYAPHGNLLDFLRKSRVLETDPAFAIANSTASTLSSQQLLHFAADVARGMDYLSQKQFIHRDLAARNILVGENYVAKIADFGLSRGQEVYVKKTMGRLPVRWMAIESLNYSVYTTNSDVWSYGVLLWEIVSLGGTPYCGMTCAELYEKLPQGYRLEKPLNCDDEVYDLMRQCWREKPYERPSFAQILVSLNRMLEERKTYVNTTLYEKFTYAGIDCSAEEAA
T3 sequence (Q9UHD2 whole entry): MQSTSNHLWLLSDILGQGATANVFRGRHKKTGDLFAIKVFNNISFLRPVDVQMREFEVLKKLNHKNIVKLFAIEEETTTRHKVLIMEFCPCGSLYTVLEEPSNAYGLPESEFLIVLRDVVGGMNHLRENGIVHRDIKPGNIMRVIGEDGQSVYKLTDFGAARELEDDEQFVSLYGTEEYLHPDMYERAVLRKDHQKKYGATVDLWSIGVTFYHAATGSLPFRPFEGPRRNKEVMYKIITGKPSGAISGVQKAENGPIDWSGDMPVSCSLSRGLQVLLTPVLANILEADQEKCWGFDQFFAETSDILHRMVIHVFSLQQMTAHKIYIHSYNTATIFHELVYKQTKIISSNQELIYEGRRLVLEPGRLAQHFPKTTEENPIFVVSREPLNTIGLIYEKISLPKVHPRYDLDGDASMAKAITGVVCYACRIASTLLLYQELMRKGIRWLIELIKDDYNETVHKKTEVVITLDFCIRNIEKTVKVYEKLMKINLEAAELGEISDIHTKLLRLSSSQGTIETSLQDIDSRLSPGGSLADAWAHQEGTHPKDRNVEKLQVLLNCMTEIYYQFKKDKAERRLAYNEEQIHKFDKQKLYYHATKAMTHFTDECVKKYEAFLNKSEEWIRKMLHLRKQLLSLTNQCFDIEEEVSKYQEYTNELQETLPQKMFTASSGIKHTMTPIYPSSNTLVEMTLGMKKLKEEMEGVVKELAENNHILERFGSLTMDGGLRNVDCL

As to `c1cncc(-c2cc(-c3cncs3)cs2)c1` [Compound 29, 3-[4-(1,3-thiazol-5-yl)thiophen-2-yl]pyridine], the “concentration at which enhancement of reporter dye fluorescence (ROS) starts” value in the assay on U2OS osteosarcoma cells came out at 0.2 µM. For the same compound, the inhibition at 5 µM against SGK (SGK1) was 20%; at RAF1 (cRAF) Y340D Y341D it was 36%; against TBK1 it was 3%; on PRKACA (PKA), 1%; on MAPKAPK2, 2%; against DYRK4, 13%. Moreover, the inhibition at 5 µM was 24% against TGFBR1 (ALK5); -5% on CSNK1G1 (CK1 gamma 1); 23% in assay [1]; -6% at MAPK9 (JNK2); 0% against EEF2K; 6% at KDR (VEGFR2). For the same compound, the inhibition at 5 µM on LIMK1 was 11%; at AMPK A1/B1/G1 it was -9%; against MINK1, 36%; at MET (cMet), 1%; against CHEK2 (CHK2), 1%; against TEK (Tie2) it was -1%. Further, the inhibition at 5 µM against IKBKB (IKK beta) stood at 8%; against TNK2 (ACK) it was 8%; against MAP3K14 (NIK), 2%; against NEK1, 3%; against SRPK1, 3%.

For `c1cncc(-c2csc(-c3cncs3)c2)c1` [Compound 48, 3-[5-(1,3-thiazol-5-yl)thiophen-3-yl]pyridine], the inhibition at 5 µM on SGK (SGK1) is 22%; against RAF1 (cRAF) Y340D Y341D, 37%; on TBK1, 8%; against PRKACA (PKA) it was 3%; against MAPKAPK2, 2%; on DYRK4, 12%. For the same compound, the inhibition at 5 µM at TGFBR1 (ALK5) is 22%; at CSNK1G1 (CK1 gamma 1) it was -3%; in assay [1], 27%; against MAPK9 (JNK2) it was -6%; against EEF2K it was 1%; at KDR (VEGFR2), 10%. Further, the inhibition at 5 µM against LIMK1 is 4%; on AMPK A1/B1/G1, -5%; against MINK1 it was 19%; against MET (cMet) it was -12%; against CHEK2 (CHK2), -2%; at TEK (Tie2), 0%. Further, the inhibition at 5 µM at IKBKB (IKK beta) was 12%; at TNK2 (ACK), 8%; on MAP3K14 (NIK), 5%; against NEK1, -5%; on SRPK1, 1%.
